These are literature values, as cited in PubChem BioAssay AID1259409 (Chemical Carcinogenesis Research Information System (CCRIS), 2018).

The data set relates to rodent chemically induced tumor inhibition, incidence and multiplicity. The experiment in a line: CCRIS tumor inhibitor studies. As to conditions: Route [Inhibitor]: ORAL, Promoter: NONE USED.

For the compound `ClC1C(Cl)C(Cl)C(Cl)C(Cl)C1Cl` (configuration not stated), the “tumour outcome (control, treated, inhibition, significance)” value by setting is: (Carcinogen: DIETHYLNITROSAMINE, 55-18-5, Dose [Inhibitor]: 0, 250 PPM IN DIET FOR 24 WK BEGINNING AT 28 D OF AGE (STUDY DURATION: 26 WK), Species: MOUSE, Strain/Sex: B6C3F1/MALE, Target Tissue: Type of Lesion: LIVER: ADENOMA, Dose [Carcinogen]: 5 UG/G BW IN 0.1 ML SALINE ONCE AT 15 D OF AGE) 15/15 (100%), 15/15 (100%), 0%, not significant; (Dose [Inhibitor]: 0, 100 PPM IN DIET ADMINISTERED CONCURRENTLY WITH CARCINOGEN FOR 1 WK (STUDY DURATION: 82 WK), Species: RAT, Strain/Sex: BUFFALO/FEMALE, Target Tissue: Type of Lesion: LIVER: TUMOR, Dose [Carcinogen]: 1 PPM IN DIET FOR 1 WK) 6/19 (32%), 1/20 (5%), 84%, not calculated; (Dose [Inhibitor]: 0, 100 PPM IN DIET ADMINISTERED CONCURRENTLY WITH CARCINOGEN FOR 3 WK (STUDY DURATION: 82 WK), Species: RAT, Strain/Sex: BUFFALO/FEMALE, Target Tissue: Type of Lesion: LIVER: TUMOR, Dose [Carcinogen]: 1 PPM IN DIET FOR 3 WK) 6/19 (32%), 0/23 (0%), 100%, not calculated; (Dose [Inhibitor]: 0, 100 PPM IN DIET ADMINISTERED CONCURRENTLY WITH CARCINOGEN FOR 5 WK (STUDY DURATION: 82 WK), Species: RAT, Strain/Sex: BUFFALO/FEMALE, Target Tissue: Type of Lesion: LIVER: TUMOR, Dose [Carcinogen]: 1 PPM IN DIET FOR 5 WK) 6/19 (32%), 0/17 (0%), 100%, not calculated; (Dose [Inhibitor]: 0, 100 PPM IN DIET ADMINISTERED CONCURRENTLY WITH CARCINOGEN FOR 10 WK (STUDY DURATION: 82 WK), Species: RAT, Strain/Sex: BUFFALO/FEMALE, Target Tissue: Type of Lesion: LIVER: TUMOR, Dose [Carcinogen]: 1 PPM IN DIET FOR 10 WK) 6/19 (32%), 0/22 (0%), 100%, not calculated; (Dose [Inhibitor]: 0, 100 PPM IN DIET ADMINISTERED CONCURRENTLY WITH CARCINOGEN FOR 15 WK (STUDY DURATION: 82 WK), Species: RAT, Strain/Sex: BUFFALO/FEMALE, Target Tissue: Type of Lesion: LIVER: TUMOR, Dose [Carcinogen]: 1 PPM IN DIET FOR 15 WK) 6/19 (32%), 0/13 (0%), 100%, not calculated.

For the compound `[O]=[W](=[O])([OH])[OH]`, the outcome (Carcinogen: N-NITROSO-N-METHYLUREA, 684-93-5, Dose [Inhibitor]: 0, 150 PPM IN DRINKING WATER BEGINNING AT 35 D OF AGE (STUDY DURATION:198 D), Species: RAT, Strain/Sex: SPRAGUE-DAWLEY/FEMALE, Target Tissue: Type of Lesion: MAMMARY GLAND: CARCINOMA, Dose [Carcinogen]: 5 MG/100 G BW ONCE AT 50 D OF AGE) is reported as 50%, 79%, -58%, p<0.05 at 125 d; 91%, 96%, -5%, not calculated at 198 d. Also, the “tumour outcome (control, treated, inhibition, significance)” value reads like this: (Carcinogen: N-NITROSOSARCOSINE ETHYL ESTER, 1130-69-4, Dose [Inhibitor]: 100 PPM IN DRINKING WATER DAILY FOR 19 WK STARTING 3 WK PRIOR TO START OF CARCINOGEN TREATMENT (STUDY DURATION: 19 WK), Species: RAT, Strain/Sex: SPRAGUE-DAWLEY/MALE, Target Tissue: Type of Lesion: ESOPHAGUS: CARCINOMA, Dose [Carcinogen]: 10 ML/KG BW 2/WK FOR 8 WK) 80%, 80%, 0%, not significant; (Carcinogen: N-NITROSOSARCOSINE ETHYL ESTER, 1130-69-4, Dose [Inhibitor]: 100 PPM IN DRINKING WATER DAILY FOR 19 WK STARTING 3 WK PRIOR TO START OF CARCINOGEN TREATMENT (STUDY DURATION: 19 WK), Species: RAT, Strain/Sex: SPRAGUE-DAWLEY/MALE, Target Tissue: Type of Lesion: FORESTOMACH: CARCINOMA, Dose [Carcinogen]: 10 ML/KG BW 2/WK FOR 8 WK) 70%, 80%, -14%, not significant; (Carcinogen: N-NITROSOSARCOSINE ETHYL ESTER, 1130-69-4, Dose [Inhibitor]: 100 PPM IN DRINKING WATER DAILY FOR 30 WK STARTING 3 WK PRIOR TO START OF CARCINOGEN TREATMENT (STUDY DURATION: 30 WK), Species: RAT, Strain/Sex: SPRAGUE-DAWLEY/MALE, Target Tissue: Type of Lesion: ESOPHAGUS: CARCINOMA, Dose [Carcinogen]: 10 ML/KG BW 2/WK FOR 8 WK) 91%, 86%, 5%, not significant; (Carcinogen: N-NITROSOSARCOSINE ETHYL ESTER, 1130-69-4, Dose [Inhibitor]: 100 PPM IN DRINKING WATER DAILY FOR 30 WK STARTING 3 WK PRIOR TO START OF CARCINOGEN TREATMENT (STUDY DURATION: 30 WK), Species: RAT, Strain/Sex: SPRAGUE-DAWLEY/MALE, Target Tissue: Type of Lesion: FORESTOMACH: CARCINOMA, Dose [Carcinogen]: 10 ML/KG BW 2/WK FOR 8 WK) 100%, 100%, 0%, not significant.

As to `CSC[C@H](N)C(=O)O`, the “tumour outcome (control, treated, inhibition, significance)” value runs as follows: (Carcinogen: 7,12-DIMETHYLBENZ[A]ANTHRACENE, 57-97-6, Dose [Inhibitor]: 0, 0.005 MOL/KG DIET BEGINNING 2 WK PRIOR TO CARCINOGEN AND CONTINUED FOR STUDY DURATION (STUDY DURATION: 25 WK), Species: RAT, Strain/Sex: CD-1/FEMALE, Target Tissue: Type of Lesion: MAMMARY GLAND: ADENOCARCINOMA, Dose [Carcinogen]: 10 MG ONCE) 22/25 (88%), 19/25 (76%), 14%, not significant; (Carcinogen: 7,12-DIMETHYLBENZ[A]ANTHRACENE, 57-97-6, Dose [Inhibitor]: 0, 0.015 MOL/KG DIET BEGINNING 1 WK POST CARCINOGEN AND CONTINUED FOR STUDY DURATION (STUDY DURATION: 25 WK), Species: RAT, Strain/Sex: CD-1/FEMALE, Target Tissue: Type of Lesion: MAMMARY GLAND: ADENOCARCINOMA, Dose [Carcinogen]: 10 MG ONCE) 23/30 (77%), 14/30 (47%), 39%, p<0.05; (Carcinogen: 7,12-DIMETHYLBENZ[A]ANTHRACENE, 57-97-6, Dose [Inhibitor]: 0, 0.015 MOL/KG DIET BEGINNING 2 WK PRIOR TO CARCINOGEN AND CONTINUED 1 WK POST CARCINOGEN (STUDY DURATION: 25 WK), Species: RAT, Strain/Sex: CD-1/FEMALE, Target Tissue: Type of Lesion: MAMMARY GLAND: ADENOCARCINOMA, Dose [Carcinogen]: 10 MG ONCE) 23/30 (77%), 21/30 (70%), 9%, not significant; (Carcinogen: 7,12-DIMETHYLBENZ[A]ANTHRACENE, 57-97-6, Dose [Inhibitor]: 0, 0.015 MOL/KG DIET BEGINNING 2 WK PRIOR TO CARCINOGEN AND CONTINUED FOR STUDY DURATION (STUDY DURATION: 25 WK), Species: RAT, Strain/Sex: CD-1/FEMALE, Target Tissue: Type of Lesion: MAMMARY GLAND: ADENOCARCINOMA, Dose [Carcinogen]: 10 MG ONCE) 22/25 (88%), 13/25 (52%), 41%, p<0.05.

Regarding `CCCCCCCCCCCCCCCCCCN`, the “tumour outcome (control, treated, inhibition, significance)” value runs as follows: (Carcinogen: 7,12-DIMETHYLBENZ[A]ANTHRACENE, 57-97-6, Dose [Inhibitor]: 0, 0.01% IN 20% CORN OIL DIET BEGINNING 1 WK POST CARCINOGEN DOSE (STUDY DURATION: 17 WK), Species: RAT, Strain/Sex: SPRAGUE-DAWLEY/FEMALE, Target Tissue: Type of Lesion: MAMMARY GLAND: ADENOCARCINOMA, Dose [Carcinogen]: 5 MG IN 0.5 ML OLIVE OIL ONCE) 57%, 57%, 0%, not significant; (Carcinogen: 7,12-DIMETHYLBENZ[A]ANTHRACENE, 57-97-6, Dose [Inhibitor]: 0, 0.1% IN 20% CORN OIL DIET BEGINNING 1 WK POST CARCINOGEN DOSE (STUDY DURATION: 17 WK), Species: RAT, Strain/Sex: SPRAGUE-DAWLEY/FEMALE, Target Tissue: Type of Lesion: MAMMARY GLAND: ADENOCARCINOMA, Dose [Carcinogen]: 5 MG IN 0.5 ML OLIVE OIL ONCE) 57%, 14%, 75%, p<0.001.
